System: mouse liver microsomes, metabolic half-life
Assay: qHTS Assay for Inhibitors of Bacillus subtilis Sfp phosphopantetheinyl transferase (PPTase): Mouse Liver Microsome Stability (Half Time)
Source text: PPTases are responsible for the activation of a variety of pathogen-associated virulence factors. Among these compounds are toxins such as mycolactone from Mycobacterium ulcerans, siderophores such as vibriobactin from Vibrio cholerae or mycobactin from Mycobacterium tuberculosis, as well as the mycolic acids which form the waxy cell wall of Mycobacteria. The biosyntheses of these natural products are considered attractive targets for drug design. After a large qHTS and several follow-up assays, a small molecule was identified and this in vitro ADME assay serves to better characterize its properties.
This bioassay provides profiling data on mouse liver microsome stability.
NIH Chemical Genomics Center [NCGC]
NIH Molecular Libraries Probe Centers Network [MLPCN]
Assay Submitter (PI): Michale Burkart, University of California, San Diego
1uM of compound in incubated in mouse liver microsome; the reference compound is ketanserin. Compounds are incubated at 37 degrees C for different time periods: 0, 5, 15, 30, 45, and 60 minutes. Samples are analyzed with LC-MS/MS.

A microsomal half-life of 49.5 min was found for COc1ccnc(NC(=S)N2CCN(c3ncc(C(F)(F)F)cc3Cl)CC2)c1 in this work.
